Reference: US11319299B2, “Substituted carboxamides as inhibitors of WDR5 protein-protein binding” (PROPELLON THERAPEUTICS INC., priority 2016, dated 2022)

Target: WDR5 (Homo sapiens (Human), UniProt P61964)
Assay: Surface Plasmon Resonance (SPR) assay, KD and residence time
Format: binding
Conditions: surface plasmon resonance (SPR); read-out: WDR5 binding affinity (KD)

Row | Compound | Kd [nM]
1 | CC(C)COC(=O)N1CC=C(c2cc(NC(=O)c3c[nH]c(=O)cc3C(F)(F)F)c(N3C[C@@H](C)N(C)[C@@H](C)C3)cc2F)C1 [Example 443, 2-methylpropyl 3-[2-fluoro-5-[[6-oxo-4-(trifluoromethyl)-1H-pyridine-3-carbonyl]amino]-4-[(3R,5S)-3,4,5-trimethylpiperazin-1-yl]phenyl]-2,5-dihydropyrrole-1-carboxylate] | 2.37
2 | C[C@@H]1CN(c2cc(F)c(-c3nc(C#N)cs3)cc2NC(=O)c2c[nH]c(=O)cc2C(F)(F)F)C[C@H](C)N1C [Example 446, N-[5-(4-cyano-1,3-thiazol-2-yl)-4-fluoro-2-[(3R,5S)-3,4,5-trimethylpiperazin-1-yl]phenyl]-6-oxo-4-(trifluoromethyl)-1H-pyridine-3-carboxamide] | 2.94
3 | C[C@@H]1CN(c2cc(F)c(-c3ncc(C#N)s3)cc2NC(=O)c2c[nH]c(=O)cc2C(F)(F)F)C[C@H](C)N1C [Example 447, N-[5-(5-cyano-1,3-thiazol-2-yl)-4-fluoro-2-[(3R,5S)-3,4,5-trimethylpiperazin-1-yl]phenyl]-6-oxo-4-(trifluoromethyl)-1H-pyridine-3-carboxamide] | 2.88
4 | C[C@@H]1CN(c2cc(F)c(-c3ccc(N4CCOCC4)c(F)c3)cc2NC(=O)c2cn(C)c(=O)cc2C(F)F)C[C@H](C)N1C [Example 449, 4-(difluoromethyl)-N-[4-fluoro-5-(3-fluoro-4-morpholin-4-ylphenyl)-2-[(3R,5S)-3,4,5-trimethylpiperazin-1-yl]phenyl]-1-methyl-6-oxopyridine-3-carboxamide] | 9.03
5 | C[C@@H]1CN(c2cc(F)c(-c3nc(C(=O)NCC4CC4)cs3)cc2NC(=O)c2c[nH]c(=O)cc2C(F)(F)F)C[C@H](C)N1C [Example 482, N-(cyclopropylmethyl)-2-[2-fluoro-5-[[6-oxo-4-(trifluoromethyl)-1H-pyridine-3-carbonyl]amino]-4-[(3R,5S)-3,4,5-trimethylpiperazin-1-yl]phenyl]-1,3-thiazole-4-carboxamide] | 1.75
6 | C[C@@H]1CN(c2cc(F)c(-c3nc(C(=O)N(C)C4CCCCC4)cs3)cc2NC(=O)c2c[nH]c(=O)cc2C(F)(F)F)C[C@H](C)N1C [Example 485, N-cyclohexyl-2-[2-fluoro-5-[[6-oxo-4-(trifluoromethyl)-1H-pyridine-3-carbonyl]amino]-4-[(3R,5S)-3,4,5-trimethylpiperazin-1-yl]phenyl]-N-methyl-1,3-thiazole-4-carboxamide] | 2.21
7 | C[C@@H]1CN(c2cc(F)c(-c3nc(C(=O)N4CCOCC4)cs3)cc2NC(=O)c2c[nH]c(=O)cc2C(F)(F)F)C[C@H](C)N1C [Example 486, N-[4-fluoro-5-[4-(morpholine-4-carbonyl)-1,3-thiazol-2-yl]-2-[(3R,5S)-3,4,5-trimethylpiperazin-1-yl]phenyl]-6-oxo-4-(trifluoromethyl)-1H-pyridine-3-carboxamide] | 2.44
8 | C[C@@H]1CN(c2cc(F)c(C3=CCN(C(=O)OC4(C)COC4)CC3)cc2NC(=O)c2c[nH]c(=O)cc2C(F)(F)F)C[C@H](C)N1C [Example 488, (3-methyloxetan-3-yl) 4-[2-fluoro-5-[[6-oxo-4-(trifluoromethyl)-1H-pyridine-3-carbonyl]amino]-4-[(3R,5S)-3,4,5-trimethylpiperazin-1-yl]phenyl]-3,6-dihydro-2H-pyridine-1-carboxylate] | 4.87
9 | C[C@@H]1CN(c2cc(F)c(C3=CCCN(C(=O)OC4(C)COC4)C3)cc2NC(=O)c2c[nH]c(=O)cc2C(F)(F)F)C[C@H](C)N1C [Example 489, (3-methyloxetan-3-yl) 5-[2-fluoro-5-[[6-oxo-4-(trifluoromethyl)-1H-pyridine-3-carbonyl]amino]-4-[(3R,5S)-3,4,5-trimethylpiperazin-1-yl]phenyl]-3,6-dihydro-2H-pyridine-1-carboxylate] | 2.74
10 | C[C@@H]1CN(c2cc(F)c(C3=CCN(C(=O)OC4(C)COC4)C3)cc2NC(=O)c2c[nH]c(=O)cc2C(F)(F)F)C[C@H](C)N1C [Example 490, (3-methyloxetan-3-yl) 3-[2-fluoro-5-[[6-oxo-4-(trifluoromethyl)-1H-pyridine-3-carbonyl]amino]-4-[(3R,5S)-3,4,5-trimethylpiperazin-1-yl]phenyl]-2,5-dihydropyrrole-1-carboxylate] | 3.24

Continued, values first:

Row | Kd [nM] | Compound
11 | 2.96 | C[C@@H]1CN(c2cc(F)c(C3=CCN(c4ncc(C=O)cn4)C3)cc2NC(=O)c2c[nH]c(=O)cc2C(F)(F)F)C[C@H](C)N1C [Example 444, N-[4-fluoro-5-[1-(5-formylpyrimidin-2-yl)-2,5-dihydropyrrol-3-yl]-2-[(3R,5S)-3,4,5-trimethylpiperazin-1-yl]phenyl]-6-oxo-4-(trifluoromethyl)-1H-pyridine-3-carboxamide]
12 | 1.95 | C[C@@H]1CN(c2cc(F)c(-c3cnn(C)c3)cc2NC(=O)c2c[nH]c(=O)cc2C(F)(F)F)C[C@H](C)N1C [Example 445, N-[4-fluoro-5-(1-methylpyrazol-4-yl)-2-[(3R,5S)-3,4,5-trimethylpiperazin-1-yl]phenyl]-6-oxo-4-(trifluoromethyl)-1H-pyridine-3-carboxamide]
13 | 4.05 | C[C@@H]1CN(c2cc(F)c(-c3cnc(N4CCN(C5CC5)CC4)nc3)cc2NC(=O)c2ccc(F)cc2C(F)(F)F)C[C@H](C)N1C [Example 454, N-[5-[2-(4-cyclopropylpiperazin-1-yl)pyrimidin-5-yl]-4-fluoro-2-[(3R,5S)-3,4,5-trimethylpiperazin-1-yl]phenyl]-4-fluoro-2-(trifluoromethyl)benzamide]
14 | 2.57 | C[C@@H]1CN(c2cc(F)c(C3=CCN(c4ncc(CN(C)C)cn4)C3)cc2NC(=O)c2c[nH]c(=O)cc2C(F)(F)F)C[C@H](C)N1C [Example 457, N-[5-[1-[5-[(dimethylamino)methyl]pyrimidin-2-yl]-2,5-dihydropyrrol-3-yl]-4-fluoro-2-[(3R,5S)-3,4,5-trimethylpiperazin-1-yl]phenyl]-6-oxo-4-(trifluoromethyl)-1H-pyridine-3-carboxamide]
15 | 0.474 | C[C@@H]1CN(c2cc(F)c(C3=CCN(c4ncc(CN5CCOCC5)cn4)C3)cc2NC(=O)c2c[nH]c(=O)cc2C(F)(F)F)C[C@H](C)N1C [Example 458, N-[4-fluoro-5-[1-[5-(morpholin-4-ylmethyl)pyrimidin-2-yl]-2,5-dihydropyrrol-3-yl]-2-[(3R,5S)-3,4,5-trimethylpiperazin-1-yl]phenyl]-6-oxo-4-(trifluoromethyl)-1H-pyridine-3-carboxamide]
16 | 4.93 | C[C@@H]1CN(c2ncc(-c3cc(NC(=O)c4cn(C)c(=O)cc4C(F)F)c(N4C[C@@H](C)N(C)[C@@H](C)C4)cc3F)cn2)CCO1 [Example 461, 4-(difluoromethyl)-N-[4-fluoro-5-[2-[(2R)-2-methylmorpholin-4-yl]pyrimidin-5-yl]-2-[(3R,5S)-3,4,5-trimethylpiperazin-1-yl]phenyl]-1-methyl-6-oxopyridine-3-carboxamide]
17 | 2.28 | CC(C)N1CCN(c2ncc(-c3cc(NC(=O)c4ccc(F)cc4C(F)(F)F)c(N4C[C@@H](C)N(C)[C@@H](C)C4)cc3F)cn2)CC1 [Example 466, 4-fluoro-N-[4-fluoro-5-[2-(4-propan-2-ylpiperazin-1-yl)pyrimidin-5-yl]-2-[(3R,5S)-3,4,5-trimethylpiperazin-1-yl]phenyl]-2-(trifluoromethyl)benzamide]
18 | 2.28 | C[C@@H]1COCCN1c1ncc(-c2cc(NC(=O)c3c[nH]c(=O)cc3C(F)(F)F)c(N3CCN(C)[C@@H](C)C3)cc2F)cn1 [Example 468, N-[4-fluoro-2-[(3S)-3,4-dimethylpiperazin-1-yl]-5-[2-[(3R)-3-methylmorpholin-4-yl]pyrimidin-5-yl]phenyl]-6-oxo-4-(trifluoromethyl)-1H-pyridine-3-carboxamide]
19 | 5.64 | C[C@@H]1COCCN1c1ncc(-c2cc(NC(=O)c3c[nH]c(=O)cc3C(F)(F)F)c(N3C[C@@H](C)N(C)[C@@H](C)C3)cc2F)cn1 [Example 469, N-[4-fluoro-5-[2-[(3R)-3-methylmorpholin-4-yl]pyrimidin-5-yl]-2-[(3R,5S)-3,4,5-trimethylpiperazin-1-yl]phenyl]-6-oxo-4-(trifluoromethyl)-1H-pyridine-3-carboxamide]
20 | 3.54 | C[C@@H]1CN(c2cc(F)c(-c3cnc(N4CCOCC4)nc3)cc2NC(=O)c2c[nH]c(=O)cc2C(F)(F)F)C[C@H](C)[N+]1(C)C [Example 479, N-[4-fluoro-5-(2-morpholin-4-ylpyrimidin-5-yl)-2-[(3R,5S)-3,4,4,5-tetramethylpiperazin-4-ium-1-yl]phenyl]-6-oxo-4-(trifluoromethyl)-1H-pyridine-3-carboxamide]
21 | 3.07 | C[C@@H]1CN(c2cc(F)c(-c3nc(C(=O)NC4CCCCC4)cs3)cc2NC(=O)c2c[nH]c(=O)cc2C(F)(F)F)C[C@H](C)N1C [Example 484, N-Cyclohexyl-2-[2-fluoro-5-[[6-oxo-4-(trifluoromethyl)-1H-pyridine-3-carbonyl]amino]-4-[(3R,5S)-3,4,5-trimethylpiperazin-1-yl]phenyl]-1,3-thiazole-4-carboxamide]
22 | 2.81 | C[C@@H]1CN(c2cc(F)c(-c3nc(C(=O)N4CCN(C)CC4)cs3)cc2NC(=O)c2c[nH]c(=O)cc2C(F)(F)F)C[C@H](C)N1C [Example 487, N-[4-fluoro-5-[4-(4-methylpiperazine-1-carbonyl)-1,3-thiazol-2-yl]-2-[(3R,5S)-3,4,5-trimethylpiperazin-1-yl]phenyl]-6-oxo-4-(trifluoromethyl)-1H-pyridine-3-carboxamide]
23 | 3.59 | C[C@@H]1CN(c2cc(F)c(-c3ccc(CN4CCOCC4)s3)cc2NC(=O)c2c[nH]c(=O)cc2C(F)(F)F)C[C@H](C)N1C [Example 491, N-[4-fluoro-5-[5-(morpholin-4-ylmethyl)thiophen-2-yl]-2-[(3R,5S)-3,4,5-trimethylpiperazin-1-yl]phenyl]-6-oxo-4-(trifluoromethyl)-1H-pyridine-3-carboxamide]
24 | 3.35 | C[C@@H]1CN(c2cc(F)c(-c3cccs3)cc2NC(=O)c2c[nH]c(=O)cc2C(F)(F)F)C[C@H](C)N1C [Example 492, N-[4-fluoro-2-[(3R,5S)-3,4,5-trimethylpiperazin-1-yl]-5-thiophen-2-ylphenyl]-6-oxo-4-(trifluoromethyl)-1H-pyridine-3-carboxamide]
